Assays:
EPHB1 kinase domain = assay: pTyr-Var library bacterial peptide display kinase screen (enrichment scores); format: biochemical, human; settings: for Screen: sheet EPHB1, effect of the variant peptide relative to its reference peptide in the pTyr-Var library screen (enrichment scores); for Screen (variant relative to reference peptide, measured in the pTyr-Var library screen): sheet "EPHB1", variant seq vs reference seq, bacterial peptide display enrichment
EPHB2 kinase domain = assay: as above; format: biochemical, human; settings: sheet EPHB2;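 also: log2 fold change in enrichment of variant over reference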
c-Src kinase domain [1] = biological target: T1, c-Src kinase domain (Homo sapiens, UniProt P12931); assay: as above; format: biochemical; settings: sheet "Src"
Fer kinase domain = assay: as above; format: biochemical, mouse; settings: sheet "Fer"
c-Src kinase domain [2] = biological target: T1, c-Src kinase domain; assay: ADP-Quest continuous fluorimetric kinase assay (Michaelis-Menten parameters and initial rates); format: biochemical; settings: c-Src kinase domain 10 nM, 100 μM ATP, 37 °C, three to five replicates, error = standard error of global Michaelis-Menten fit
From the text: A fluorescence-based assay from Eurofins (ADP Quest) was used to measure the Michaelis-Menten kinetic parameters for phosphorylation of the consensus peptides by purified tyrosine kinase domains. In this assay, ADP production as a result of kinase activity is coupled to the production of resorufin, a fluorophore that emits signal at 590 nm. For all experiments, the assay reactions were set up as described in the provided assay kit protocol, in a 384 well plate format. The peptide solutions were serially diluted in 100 mM Tris, pH 8.0, and the kinases were diluted to 50 nM in buffer (10 mM HEPES, 100 mM NaCl, 1 mM TCEP, 5 mM MgCl2, 10% (v/v) glycerol). The final reaction mixtures contained 10 nM of kinase with 100 μM of ATP. […] Phosphorylation reaction progress was monitored by measuring fluorescence at excitation 530 nm and emission 590 nm every 2 min at 37 °C on a plate reader (BioTek Synergy Neo 2). The fluorescence units (RFU) were converted to μM ADP by comparison to a standard curve, and the initial rates were extracted from the linear regime of the reaction progress curves. Initial rates were also measured for samples containing each kinase but lacking a peptide substrate, to account for background ATP hydrolysis. This background rate was subtracted from the rates measured in the presence of peptide. […]

c-Abl kinase domain = biological target: T2, c-Abl kinase domain (Mus musculus, UniProt P00520); assay: pTyr-Var library bacterial peptide display kinase screen (enrichment scores); format: biochemical;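 also: log2 fold change in enrichment of variant over reference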
T2 sequence (P00520 242-493 limits assumed): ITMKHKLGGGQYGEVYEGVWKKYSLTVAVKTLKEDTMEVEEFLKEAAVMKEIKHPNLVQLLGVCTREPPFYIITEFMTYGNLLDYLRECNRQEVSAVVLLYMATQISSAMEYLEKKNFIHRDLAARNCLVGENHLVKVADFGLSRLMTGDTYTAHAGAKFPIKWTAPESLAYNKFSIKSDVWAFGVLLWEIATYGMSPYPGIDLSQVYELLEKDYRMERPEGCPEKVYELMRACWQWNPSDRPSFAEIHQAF

[3] = effect of variant peptide relative to its reference peptide in the pTyr-Var library screen (enrichment scores)
[4] = effect of the variant peptide relative to its reference peptide in the pTyr-Var library screen
[5] = value of the variant peptide against its reference peptide in the pTyr-Var library screen with Fer
[6] = variant peptide versus its reference peptide in the pTyr-Var library screen
[7] = fig5-data2, sheet "Abl", Screen for the variant/reference peptide pair, pTyr-Var library
[8] = variant peptide relative to its reference peptide, pTyr-Var library screen enrichment
[9] = effect of the variant relative to its reference peptide in the pTyr-Var library screen

Substance | Screen (EPHB1 kinase domain) | Screen (EPHB2 kinase domain; [3]) | Screen (c-Src kinase domain [1]; [4]) | Screen (Fer kinase domain; [5]) | other results
ASTHIYQIMNH [ITK_Y588_V587I] | 3.124 | 2.415 | 0.7541 | 2.332 | –
AVISVYDLVVV [PSEN1_Y256_A260V] | -0.1318 | -0.3059 | – | 0.009469 | Screen (c-Src kinase domain [1]; [6]): -0.2228
Ac-GAEEEIYGEFEAKKKG-NH2 [SrcTide (1995), previously reported c-Src consensus substrate (Songyang et al., 1995)] | – | – | – | – | Km (c-Src kinase domain [2]): 64 ± 10 µM; kcat (c-Src kinase domain [2]): 3.1±0.2 s^–1
EFHRLYEEFTR [PIK3R1_Y467_D464H_YF] | 0.6076 | -0.0373 | – | -0.6972 | Screen (c-Src kinase domain [1]; [6]): 0.07006
FAELVYTSFWH [ASS1_Y322_G324S] | 0.4613 | 0.4289 | -0.03781 | 0.3535 | –
FSMGCYEIFLG [HMGCL_Y198_S201Y_YF] | 0.9243 | 0.8942 | 1.946 | 1.084 | Screen (c-Abl kinase domain; [7]): 0.9187
FTDPFYDFEIE [ZC3H18_Y372_A368T_YF] | – | – | – | – | Screen (c-Abl kinase domain; sheet "Abl", effect of variant peptide relative to its reference peptide in pTyr-Var library screen (enrichment)): 2.472; Screen (variant relative to reference peptide, measured in the pTyr-Var library screen) (EPHB1 kinase domain): 0.9547; Screen (c-Src kinase domain [1]; [6]): 0.548
GTSLIYWILFT [G6PC3_Y214_T216I] | -1.942 | -1.51 | -1.381 | -1.528 | –
HNLDFYKETTN [FGFR3_Y648_K650E_YF] | -0.9671 | -1.243 | -1.013 | -1.533 | –
IKRIDYEFVEM [ADA_Y84_A83D] | 3.957 | 2.863 | – | -0.7273 | Screen (c-Abl kinase domain; [7]): 0.5744
ITNVLYHVVGW [GBA_Y412_L410V] | -1.243 | -1.361 | -0.5492 | -0.5496 | –
KAWGIYDCQQP [CYP3A7_Y75_V71A] | 0.3477 | 0.8548 | 0.09779 | 0.5201 | –
KSRQIYDAFIM [GRK3_Y109_R104K_YF] | 0.9818 | 1.299 | 0.6859 | 0.5964 | –
LTFHMYADPNI [SOS1_Y618_F623I_YF] | – | 0.3507 | – | – | Screen (variant relative to reference peptide, measured in the pTyr-Var library screen) (EPHB1 kinase domain): 0.02693
LVTCSYLLGNS [LMNA_Y646_R644C] | – | 1.308 | – | – | –
MENFIYESMQF [CYP19A1_Y361_R365Q_YF] | 0.9498 | 1.167 | 0.1198 | 0.2137 | –
MSRFIYSTDFF [NTRK1_Y676_D674Y_YF] | -1.34 | -1.706 | – | -0.8782 | Screen (c-Src kinase domain [1]; [6]): -0.3372
MTFQNYRQALF [FAM20C_Y279_G280R] | – | -1.483 | – | – | –
NDFGNYSNQSS [HNRNPA1_Y318_N319S] | 4.118 | 2.422 | – | – | –
NREGVYTVSAP [TGFBI_Y537_F540S] | – | -1.97 | – | – | Screen (variant relative to reference peptide, measured in the pTyr-Var library screen) (EPHB1 kinase domain): -2.126; Screen (c-Src kinase domain [1]; [6]): -0.08291; Screen (Fer kinase domain; [8]): -3.034

Substance | Screen (EPHB1 kinase domain) | Screen (EPHB2 kinase domain; [3]) | Screen (c-Src kinase domain [1]; [4]) | Screen (Fer kinase domain; [5]) | other results
NVKGIYAVADV [GSR_Y371_G374A] | 1.714 | 2.725 | -0.2612 | 1.853 | –
PANMVYSTVEI [SLAMF7_Y304_T302M] | – | 0.9599 | – | – | Screen (variant relative to reference peptide, measured in the pTyr-Var library screen) (EPHB1 kinase domain): 0.5023; Screen (c-Src kinase domain [1]; [6]): 0.01938; Screen (Fer kinase domain; [8]): -0.2345
QMVGMYASFFM [AVPR2_Y124_S127F_YF] | 1.725 | 1.338 | 2.334 | 2.583 | –
RIGRKYKRVRF [F8_Y442_K444R] | – | 1.084 | 3.277 | – | –
RNFGTYTAGLS [RHBDD1_Y264_D262G_YF] | -2.368 | -2.902 | – | – | –
RQQQDYWLKDV [ANPEP_Y600_I603K] | -4.233 | -3.253 | – | -2.803 | –
RTVPLYESLRK [DDB1_Y718_P721L] | 0.1495 | -0.0735 | 1.169 | -0.4469 | –
RVLQLYGCSPS [ASTL_Y279_K277Q] | – | 1.225 | – | – | –
SEPDLYFDPRG [PKP1_Y160_C161Y_YF] | 1.592 | 1.913 | – | -1.5 | Screen (c-Src kinase domain [1]; [6]): 1.044
SQINLYQDVML [ZNF806_Y33_A28S] | – | – | – | – | Screen (variant relative to reference peptide, measured in the pTyr-Var library screen) (EPHB1 kinase domain): -0.1927; Screen (EPHB2 kinase domain; [9]): -0.4727; Screen (Fer kinase domain; [8]): -0.1473
SRDPFYEMLTA [CYTH1_Y382_A386T] | 0.4954 | 0.7334 | 0.1014 | -0.1692 | –
SSSAIYDNPDL [DCP1B_Y191_N195D] | -0.6114 | -0.486 | -1.087 | -0.4908 | Screen (c-Abl kinase domain; [7]): 1.925
SVVVLYEPPEV [TP53_Y220_P219L] | – | – | – | – | Screen (variant relative to reference peptide, measured in the pTyr-Var library screen) (EPHB1 kinase domain): 3.168; Screen (EPHB2 kinase domain; [9]): 4.006; Screen (Fer kinase domain; [8]): 3.283
TLSGTYQFIIA [FOXL2_Y81_I80T_YF] | -3.534 | -3.51 | -2.746 | -3.428 | –
VARAVYQAVLS [SMG1_Y549_H546R] | – | -3.744 | – | – | Screen (variant relative to reference peptide, measured in the pTyr-Var library screen) (EPHB1 kinase domain): -4.046; Screen (c-Src kinase domain [1]; [6]): -1.809; Screen (Fer kinase domain; [8]): -2.673
VDGSLYETHPQ [HK1_Y417_K418E] | 1.816 | 2.555 | – | 4.441 | –
VDGSVYELHPS [GCK_Y413_K414E] | 2.239 | 2.546 | 1.442 | 4.734 | –
VFLGAYDHFLP [SLC22A5_Y486_R488H_YF] | – | 1.125 | – | – | Screen (variant relative to reference peptide, measured in the pTyr-Var library screen) (EPHB1 kinase domain): 0.9383; Screen (c-Src kinase domain [1]; [6]): -0.3296; Screen (Fer kinase domain; [8]): 2.03
VKANTYENFWP [GATM_Y100_K102N_YF] | 2.281 | 2.516 | 0.5982 | 1.784 | –

Source: PMC10065799, “High-throughput profiling of sequence recognition by tyrosine kinases and SH2 domains using bacterial peptide display” (eLife, 2023)
